Data: patent US20020142362A1, “Colorimetric assay system using thiopeptolide substrate for detection of membrane-type matrix metalloproteinase” (priority 2000, published 2002)
Numbered stars: 1 amine (or outer) side, 2 acyl side, 3 side chain; on linkers, the order of the positions; unused ones are H or OH. Bridge positions count the residues as written; N and C are the ends. Square brackets hold non-standard residues; d marks the D form. Peptide text beside a SMILES is read from it. I, II: the chains in the order shown. Actinocin(9to1) = Cc1c2oc3c(C)ccc(C(=O)[*:1])c3nc-2c(C(=O)[*:2])c(N)c1=O; NMeV = CN[C@H](C(=O)O)C(C)C; Sar = CNCC(=O)O

Columns and labels:
MT-MMP [1] = assay: Thiopeptolide assay on cultured TM cells with protease inhibitors; assay type: cell-based
Source text: Evidence has been presented by Mazzieri, et al., EMBO Journal 16: 2319-2332 (1997) that the urokinase-plasmin system may be in part responsible for activation of proGelatinase A in some cell systems. It was found in studying the subject thiopeptolide assay that a lesser fraction of the subject thiopeptolide assay activity could be inhibited by serine protease inhibitors, which are ineffective with MMP's. However, when these latter inhibitors were employed with TM cells stimulated by Con A, the percentage increase in thiopeptolide assay activity, compared to control cultures, was in fact augmented due to the Con A treatment.

proGelatinase A [2] = conditions: cited from earlier work; for activation of Gelatinase A from the proenzyme form (zymography): HT-1080, in vitro incubation
MT1-MMP [3] = conditions: HT-1080, in vitro incubation; cited from earlier work
MT1-MMP [4] = assay: Thiopeptolide assay on HT-1080 cells; assay type: cell-based, Human
Source text: The activation of proGelatinase A was shown in the noted Lohi and Stanton work to be inhibitable by tissue inhibitor of [matrix] metalloproteinases-2 (TIMP-2), and by a synthetic hydroxamate inhibitor of MMP's, but not by metalloproteinases-1 (TIMP-1). As additional evidence that the subject assay detects MT1-MMP in human and non-human primate TM cells, the zymographic results of the Lohi and Stanton work were reproduced using the subject assay, using the same methodology as described herein for TM cells, with […] and […].

MT-MMP [5] = assay: Thiopeptolide assay on cultured trabecular meshwork cells (digitonin-permeabilized); assay type: cell-based, Rhesus monkey; conditions: for thiopeptolide assay result versus control CACM: control cells (no Con A), 1 hour preincubation + 24 hours
Description: (§1) The assay of the present invention may be made by first preparing the selected biological sample and assay buffer. To prepare the biological sample, the biological sample such as but not limited to cultured cells were placed in microtiter plates and incubated at approximately 37° C. for up to approximately 96 hours with serum-free, defined medium. A portion of the serum-free, defined medium contained test compounds, while another portion was maintained free of test compounds to serve as controls. In some cases, the biological sample was then processed as a permeabilized “ghost” as described in Example 1 below. The biological sample was then rinsed several times with cold isotonic balanced saline or Tris(hydroxymethyl)aminomethane (TRIS) buffer at pH 7.2 - 7.5. The saline or buffer was then replaced by filter-sterilized, isotonic assay buffer (295 mOsm) consisting of approximately 50 mmol/L N-[2-hydroxyethyl]piperazine-N′-[2-ethane sulfonic acid] (HEPES), approximately 106 mmol/L sodium chloride, approximately 3.5 mmol/L potassium chloride, approximately 5 mmol/L calcium chloride, and approximately 0.02% (v/v) polyoxyethylene 23 lauryl ether (Brij 35) or a similar detergent, final pH approximately 7.5, at approximately room temperature. The Brij 35 was added fresh, and the final mixture was protected from excessive light exposure. The volume of assay buffer for each biological sample was approximately one-half the final assay mixture volume, the other half being made up of the thiopeptolide substrate/thiol reagent solution. For example, when 96-well microtiter plates were employed, the assay mixture volume was approximately 200 microliters.
Next the thiopeptolide substrate/thiol reagent solution was prepared. Preferably, the synthetic thiopeptolide substrate acetyl-prolyl-leucyl-glycyl-[2-mercapto-4-methyl-pentanoyl]-leucyl-glycyl-ethyl ester (Bachem Bioscience, Inc., King of Prussia, Pa.) is used in the solution due to its ready availability. The synthetic thiopeptolide was stored as a 40X, 20 mmol/L stock in DMSO, sealed from light and air, and stored with desiccant at approximately −70° C.. The thiol reagent, 4,4-dithiodipyridine,5,5′-dithio bis(2-nitro-benzoic acid) (DTNB) or the like, but preferably DTNB, was prepared as a 100X, 50 mmol/L stock in DMSO, and stored protected from light with desiccant at approximately room temperature. The combined thiopeptolide and DTNB were both diluted to appropriately 1 mmol/L in assay buffer without Brij 35 to yield a solution that was 2X for both chemicals after thorough mixing. The assay reaction was started when this 2X solution was added in a 1:1 ratio, with thorough mixing, to the assay buffer in which the cells had been equilibrated. The final concentration of both thiopeptolide and DTNB were 0.5 mmol/L.
The assay reaction was then allowed to progress to a suitable endpoint beyond which no further color reaction proceeded, possibly due to product inhibition. This endpoint is usually reached after approximately two hours. During the two hours the samples were gently agitated in an approximately 37° C. humidified incubator. Once the endpoint was reached the microtiter plates were placed into a plate reader and optical density (OD) was measured at 410 nm. Blank values, the OD readings for samples without cells, used to assess non-enzymatic, non-specific hydrolysis of substrate, were then subtracted from all sample OD measurements. The OD measurements taken at 410 nm may be used as a measure of the amount of MT-MMP present on the samples. The effects of experimental conditions on the expression of MT-MMP may then be compared with that of the control samples.
Details of the signal transduction process initiated by Con A culminating in proGelatinase A activation by MT-MMP remained to be elucidated. […]

MT-MMP [6] = assay: Thiopeptolide assay on excised trabecular meshwork from human anterior segment organ culture; assay type: cell-based
Description: as §1
Next the thiopeptolide substrate/thiol reagent solution was prepared. Preferably, the synthetic thiopeptolide substrate acetyl-prolyl-leucyl-glycyl-[2-mercapto-4-methyl-pentanoyl]-leucyl-glycyl-ethyl ester (Bachem Bioscience, Inc., King of Prussia, Pa.) is used in the solution due to its ready availability. The synthetic thiopeptolide was stored as a 40X, 20 mmol/L stock in DMSO, sealed from light and air, and stored with desiccant at approximately −70° C.. […]
The assay reaction was then allowed to progress to a suitable endpoint beyond which no further color reaction proceeded, possibly due to product inhibition. […] Once the endpoint was reached the microtiter plates were placed into a plate reader and optical density (OD) was measured at 410 nm. Blank values, the OD readings for samples without cells, used to assess non-enzymatic, non-specific hydrolysis of substrate, were then subtracted from all sample OD measurements. […]

proGelatinase A [7] = assay: Zymography of conditioned medium from cultured TM cells; assay type: cell-based
[8] = Con A-treated cells (10 ug/ml), inhibitor 1 hour preincubation, then Con A plus inhibitor 24 hours, Act D 500 ng/ml, CHX 20 ug/ml

TIMP-1: metalloproteinases-1 (TIMP-1), tissue inhibitor of metalloproteinases
inhibition of activity increases in thiopeptolide assay (MT-MMP [1]): not
inhibition of activation of proGelatinase A (proGelatinase A [2]; HT-1080, Lohi and Stanton work): not

CCCCCCCCCCCCCC(=O)O[C@@H]1[C@@H](C)[C@@]2(O)[C@@H](C=C(CO)C[C@]3(O)C(=O)C(C)=C[C@@H]23)[C@@H]2C(C)(C)[C@]12OC(C)=O [PMA, phorbol 12-myristate 13-acetate]
activation of Gelatinase A from the proenzyme form (zymography) (proGelatinase A [2]): activate
expression of MT1-MMP (Western immunoblot) (MT1-MMP [3]): increase expression
activity in thiopeptolide assay following treatment (MT1-MMP [4]): Increased activity

Cc1c2oc3c(C)ccc(C(=O)N[C@@H]4C(=O)N[C@H](C(C)C)C(=O)N5CCC[C@H]5C(=O)N(C)CC(=O)N(C)[C@@H](C(C)C)C(=O)O[C@@H]4C)c3nc-2c(C(=O)N[C@@H]2C(=O)N[C@H](C(C)C)C(=O)N3CCC[C@H]3C(=O)N(C)CC(=O)N(C)[C@@H](C(C)C)C(=O)O[C@@H]2C)c(N)c1=O [Act D, actinomycin D] (I: T[dV]P[Sar][NMeV] / II: T[dV]P[Sar][NMeV]; ester I:1-I:C, II:1-II:C; linker I:N-II:N via Actinocin(9to1))
MT-MMP activity in thiopeptolide assay versus control CACM (MT-MMP [5]; Con A for 6 hrs, then Con A plus Act D for 18 hours): slightly, but discernibly, higher than control
MT-MMP activity in thiopeptolide assay versus control CACM (MT-MMP [5]; [8]): slightly, but discernibly, higher than control
thiopeptolide assay result versus control CACM (MT-MMP [5]; Act D 500 ng/ml, CHX 20 ug/ml): not significantly different from control CACM alone

C[C@@H]1C[C@@H]([C@H](O)CC2CC(=O)NC(=O)C2)C(=O)[C@@H](C)C1 [CHX, cycloheximide]
MT-MMP activity in thiopeptolide assay versus control CACM (MT-MMP [5]; [8]): not significantly different from control CACM alone
thiopeptolide assay result versus control CACM (MT-MMP [5]; Act D 500 ng/ml, CHX 20 ug/ml): not significantly different from control CACM alone

Concanavalin A [Con A]
activation of Gelatinase A from the proenzyme form (zymography) (proGelatinase A [2]): activate
expression of MT1-MMP (Western immunoblot) (MT1-MMP [3]): increase expression
OD readings over control (MT-MMP [6]; 100 ug/ml Con A): 200%
OD readings over control (MT-MMP [6]; 30 - 80 ug/ml Con A): approximately 100%
thiopeptolide assay result versus control medium (MT-MMP [6]; Con A below 30 ug/ml): indistinguishable from simply incubating anterior segment quadrants in control medium
threshold Con A concentration for MT-MMP expression in intact TM (MT-MMP [6]; human anterior segment quadrants, 24 + 18 hour incubation): 30 µg/mL
MT-MMP expression over control levels (OD 410 nm, thiopeptolide assay) (MT-MMP [5]; Con A 10 ug/ml in CACM, 24 hours, vs control CACM): more than 200%
activity in thiopeptolide assay following treatment (MT1-MMP [4]): Increased activity
activation of proGelatinase A (zymography) (proGelatinase A [7]): robust activation
